Laboratory results published in publication PMC6540222, “Small Molecule Inhibitors of KDM5 Histone Demethylases Increase the Radiosensitivity of Breast Cancer Cells Overexpressing JARID1B” (Molecules, 2019).
Like-named read-outs stand apart in the source and are kept apart here.

Key:
[1] = tested on: MCF-7 cells; experiment: RNA-seq differential gene expression; type: cell-based, human; conditions: MCF-7 treated with RS3195 10 μM
[2] = tested on: MCF-7 cells; experiment: COMET assay (DNA damage); type: cell-based, human; conditions: MCF-7, sham-irradiated, 3 μM
Experimental: To test if the cytotoxic effects of KDM5 inhibitors on MCF-7 cells were related to an increase of DNA damage accumulation, we collected cells treated with the three KDM5 inhibitors or DMSO-treated control cells after one hour from irradiation with 3 Gy of ionizing radiation (or sham-irradiation). We then performed COMET assays to assess DNA damage.
The COMET assay was performed using the OxiSelect™ 96-Well Comet Assay Kit (Cell Biolabs, Inc., San Diego, CA, USA) following the manufacturer’s instruction manual (https://www.cellbiolabs.com/sites/default/files/STA-355-comet-assay-kit.pdf).

[3] = tested on: KDM5 enzymes; conditions: cited from earlier work
[4] = biological target: KDM5 enzymes; experiment: Enzymatic inhibition assay (Epigenase JARID Demethylase Activity/Inhibition Assay Kit, fluorometric); type: biochemical; conditions: in vitro, toward KDM5 enzymes; This work
Experimental: Inhibition by RS5033 (IC50) was determined by the Epigenase™ JARID Demethylase Activity/Inhibition Assay Kit (Fluorometric) (#P-3083-48 Epigentek, Farmingdale, NY, USA) which is a complete set of optimized reagents, designed for an easy and fast fluorometric measurement of JARID activity or inhibition. The antibody-based, immune-specific method directly detects JARID-converted demethylated products, rather than by- products, in a 96 stripwell microplate format.

[5] = tested on: pan-methyl-H3K9 levels in MCF-7 cells; experiment: Western blotting of pan-methyl-H3K9 levels; type: cell-based, human; conditions: MCF-7, 24 h, three concentrations (1, 10, 30 μM)
Experimental: (§1) Histone isolation was performed according to acid extraction of histones protocol of Shechter and colleagues. Histone concentration was determined by running 5 μL of samples and known concentrations of commercially available purified calf thymus histones (from Sigma Aldrich Cat. #000000010223565001) on a SDS-PAGE gel. The gel is stained with Coomassie blue G 250 (BIO-RAD Cat. #161-0786) for 1 hour at room temperature and then destained in distilled water. The gel image is acquired with ChemiDoc XRS+ Imaging System (Bio-Rad, Hercules, CA, USA) and the volumes of bands of the samples are compared to standard concentrations of calf thymus histone.
(§2) Proteins were resolved on a 12% (histones) or 5% (JARID1B) denaturing polyacrylamide gel, using either 4 μg of histone preparation or 40 μg of cell lysate. […] Blots were scanned and analyzed with a ChemiDoc XRS+ Imaging System (Bio-Rad). The volumes of each band of protein was acquired using Bio-Rad’s ImageLab software by means of volume tools using global quantification. The signal for each protein was normalized to the housekeeping protein and ratios with average control values were determined. For histones as loading control was used either total histone H3 detected by a specific antibody or histone H1 levels by staining the upper part of the gel properly cut before protein transfer on nitrocellulose membrane.

[6] = tested on: H3K27me3 levels in MCF-7 cells; experiment: Western blotting of H3K27me3 levels; type: cell-based, human
Experimental: as §1, §2

| log2FoldChange CYP1A1 ([1]; gene CYP1A1) | log2FoldChange CYP1B1 ([1]; gene CYP1B1) | IC50 [4] | SMILES | log2FoldChange AHRR ([1]; gene AHRR) | log2FoldChange RPS3A ([1]; gene RPS3A) | log2FoldChange TXNRD1 ([1]; gene TXNRD1) | cells with comet tail, sham-irradiated (intrinsic genotoxicity) [2] | inhibition of KDM5B and KDM5D activity in vitro [3] | IC50 ([3]; in vitro, toward KDM5 enzymes, ref Mannironi et al. [36]) | H3K9me3 (pan-methyl-H3K9) levels [5] | H3K27me3 levels ([6]; MCF-7, 24 h, three concentrations (1, 10, 30 μM)) | decrease of H3K27 tri-methylation ([6]; MCF-7, highest concentration of inhibitor) |
| --- | --- | --- | --- | --- | --- | --- | --- | --- | --- | --- | --- | --- |
| 7.446 | 3.42 | – | CCOC(=O)c1cccn1C(=O)c1cccc(NS(=O)(=O)c2ccc(OC)cc2)c1 [RS3195] | 2.438 | 2.088 | 1.608 | strong effect | selectively inhibit | 2000 nM | – | – | – |
| – | – | 1000 nM | CCOC(=O)c1ccccc1C(=O)c1cccc(NS(=O)(=O)c2ccc(OC)cc2)c1 [RS5033] | – | – | – | – | – | – | not affected | decrease | about two-fold |
